The values below are quoted from earlier work in US20240009304A1, “USE OF NGF ANTIBODY IN CIPN PAIN” (Dartsbio Pharmaceuticals Ltd., priority 2020, published 2024).

For one series, the system named is CIPN pain. As to conditions: background statement; cited from earlier work.
For a further series, the system named is neuronal 5-HT reuptake. The following applies: preclinical studies, background; cited from earlier work.
Another series concerns monoamine oxidase. As to conditions: background; cited from earlier work.
Another series deals with neuronal NE reuptake. As to conditions: preclinical studies, background; cited from earlier work.
Series [1] concerns dopaminergic receptor, adrenergic receptor, cholinergic receptor, histaminergic receptor, opioid receptor, glutamate receptor and GABA receptor. The following applies: in vitro study, background; cited from earlier work.
Another series relates to dopamine reuptake. As to conditions: preclinical studies, background; cited from earlier work.

On to `CC(C)C[C@H](CN)CC(=O)O` [pregabalin], for which the “effect in the treatment of CIPN pain” value in the series on CIPN pain is on record as “do not seem to be more effective than placebo”.
As for `CNCC[C@H](Oc1cccc2ccccc12)c1cccs1` [Duloxetine], the “neuronal 5-HT reuptake inhibition” value with neuronal 5-HT reuptake is listed as “strong inhibitor”. Moreover, the “inhibition of monoamine oxidase” value in the series on monoamine oxidase is given as “does not inhibit”. Also, the “effect in the treatment of CIPN pain” value in the series on CIPN pain is given as “proven to be effective”. Also, the “neuronal NE reuptake inhibition” value with neuronal NE reuptake is on record as “strong inhibitor”. The affinity with receptors result in series [1] is “no obvious affinity”. Moreover, in the series on dopamine reuptake, the “inhibitory effect on dopamine reuptake” value is given as “relatively weak”.
`NCC1(CC(=O)O)CCCCC1` [gabapentin]: the “effect in the treatment of CIPN pain” value with CIPN pain is “do not seem to be more effective than placebo”.
Turning to `CN(C)CCC=C1c2ccccc2CCc2ccccc21` [amitriptyline], the “effect in the treatment of CIPN pain” value with CIPN pain is “do not seem to be more effective than placebo”.
